# Target: T1, human Nav1.8 (Homo sapiens, UniProt Q9Y5Y9)
# T1 construct: expressed in transfected cells; host or cells: HEK293 (HEK293-Nav1.8)
# Experiment: Nav1.8 sodium channels assay, QPatch 48 HTX electrophysiology in HEK293-Nav1.8 cells
# Type: cell-based
# Details: Table 1; HEK293-Nav1.8, QPatch 48 HTX, half inactivation state voltage protocol (V1/2); single run or average of two or more runs; read-out: Nav1.8 pIC50 (converted)
# Outline: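 HEK293 cells co-expressing human Nav1.8, Navβ1 and TREK1 were voltage-clamped on QPatch 48 HTX. The V1/2 protocol ran at 0.07 Hz: hold −100 mV, 20 ms to 0 mV, 8 s at −46 mV, 20 ms at −100 mV, then 20 ms at 0 mV (P2). P2 current was fitted over 6-8 concentrations for IC50, with vehicle wells used to correct for run-down.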
# T1 sequence (Q9Y5Y9 whole entry): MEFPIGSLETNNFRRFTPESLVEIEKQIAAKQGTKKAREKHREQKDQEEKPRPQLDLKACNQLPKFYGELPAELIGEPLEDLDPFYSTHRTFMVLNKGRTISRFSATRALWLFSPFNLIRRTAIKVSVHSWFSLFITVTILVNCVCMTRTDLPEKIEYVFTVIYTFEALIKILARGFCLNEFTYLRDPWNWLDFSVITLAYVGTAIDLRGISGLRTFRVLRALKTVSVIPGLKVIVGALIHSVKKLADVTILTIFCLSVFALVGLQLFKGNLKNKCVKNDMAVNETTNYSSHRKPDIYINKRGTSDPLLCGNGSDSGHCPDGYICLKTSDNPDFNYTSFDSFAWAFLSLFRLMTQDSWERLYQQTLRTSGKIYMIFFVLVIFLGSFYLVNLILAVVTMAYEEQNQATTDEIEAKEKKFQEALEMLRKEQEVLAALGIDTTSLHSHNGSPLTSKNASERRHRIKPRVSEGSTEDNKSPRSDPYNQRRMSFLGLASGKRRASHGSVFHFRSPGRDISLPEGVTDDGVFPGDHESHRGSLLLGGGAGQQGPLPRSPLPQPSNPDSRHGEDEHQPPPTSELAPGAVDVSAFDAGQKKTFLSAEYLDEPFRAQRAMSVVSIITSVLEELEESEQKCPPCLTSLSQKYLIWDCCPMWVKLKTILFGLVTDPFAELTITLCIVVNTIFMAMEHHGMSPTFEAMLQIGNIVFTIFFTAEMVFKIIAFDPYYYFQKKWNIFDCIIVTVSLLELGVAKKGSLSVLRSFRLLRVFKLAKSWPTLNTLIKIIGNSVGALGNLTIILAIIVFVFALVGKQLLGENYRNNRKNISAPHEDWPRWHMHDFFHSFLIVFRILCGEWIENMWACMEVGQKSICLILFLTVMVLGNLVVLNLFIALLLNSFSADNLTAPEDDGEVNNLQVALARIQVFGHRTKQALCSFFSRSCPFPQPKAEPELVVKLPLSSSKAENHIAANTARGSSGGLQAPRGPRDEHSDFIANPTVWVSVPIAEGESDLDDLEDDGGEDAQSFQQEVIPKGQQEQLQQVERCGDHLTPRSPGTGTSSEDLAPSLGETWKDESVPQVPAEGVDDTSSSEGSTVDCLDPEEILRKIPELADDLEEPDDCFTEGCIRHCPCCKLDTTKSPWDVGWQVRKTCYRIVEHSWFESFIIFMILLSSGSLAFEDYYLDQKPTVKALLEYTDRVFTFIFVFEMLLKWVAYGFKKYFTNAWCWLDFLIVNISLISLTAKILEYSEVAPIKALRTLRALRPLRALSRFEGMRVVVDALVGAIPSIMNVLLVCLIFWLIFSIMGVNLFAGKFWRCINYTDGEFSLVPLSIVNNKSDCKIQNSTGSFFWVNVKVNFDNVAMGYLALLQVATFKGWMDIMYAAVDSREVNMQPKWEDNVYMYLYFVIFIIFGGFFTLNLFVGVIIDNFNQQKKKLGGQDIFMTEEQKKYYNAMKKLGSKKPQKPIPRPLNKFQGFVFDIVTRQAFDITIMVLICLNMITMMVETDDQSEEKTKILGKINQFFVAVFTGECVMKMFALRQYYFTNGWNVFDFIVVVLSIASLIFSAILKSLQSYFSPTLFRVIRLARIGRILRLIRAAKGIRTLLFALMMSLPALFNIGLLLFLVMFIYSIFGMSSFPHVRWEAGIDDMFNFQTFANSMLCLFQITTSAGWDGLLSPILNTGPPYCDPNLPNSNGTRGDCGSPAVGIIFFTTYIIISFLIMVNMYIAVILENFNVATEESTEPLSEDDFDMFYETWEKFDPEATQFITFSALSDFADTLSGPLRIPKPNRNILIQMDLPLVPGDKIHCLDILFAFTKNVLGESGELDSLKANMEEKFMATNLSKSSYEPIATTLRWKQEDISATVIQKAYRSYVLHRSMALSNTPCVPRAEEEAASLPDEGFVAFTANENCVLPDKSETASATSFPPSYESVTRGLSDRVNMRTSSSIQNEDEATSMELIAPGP
# T1 sequence (Q07699 19-218 partner): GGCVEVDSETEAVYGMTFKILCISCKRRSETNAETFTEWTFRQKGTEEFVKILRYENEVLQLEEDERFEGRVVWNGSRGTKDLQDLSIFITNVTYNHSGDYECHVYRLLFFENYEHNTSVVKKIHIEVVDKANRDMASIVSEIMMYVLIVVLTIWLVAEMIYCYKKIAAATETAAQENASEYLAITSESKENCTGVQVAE
row,SMILES,IC50
1,"COc1cc(F)ccc1N1CN(c2ccc(=O)[nH]c2)C(=O)c2c1cccc2C(F)(F)F [drawing 281, 1-(4-fluoro-2-methoxyphenyl)-3-(6-oxo-1,6-dihydropyridin-3-yl)-5-(trifluoromethyl)-2,3-dihydroquinazolin-4(1H)-one]",6.31 µM
2,"Cc1cc(C#N)ccc1N1CN(c2ccc(=O)[nH]c2C)C(=O)c2ccc(C(F)(F)F)cc21 [drawing 287, 3-methyl-4-(3-(2-methyl-6-oxo-1,6-dihydropyridin-3-yl)-4-oxo-7-(trifluoromethyl)-3,4-dihydroquinazolin-1(2H)-yl)benzonitrile]",0.0631 µM
3,"Cc1cc(F)ccc1N1CN(c2ccc(=O)[nH]c2C)C(=O)c2ccc(C(F)(F)F)nc21 [drawing 288, 1-(4-fluoro-2-methylphenyl)-3-(2-methyl-6-oxo-1,6-dihydropyridin-3-yl)-7-(trifluoromethyl)-2,3-dihydropyrido[2,3-d]pyrimidin-4(1H)-one]",0.251 µM
4,"Cc1ncccc1N1CN(c2ccc(=O)[nH]c2C)C(=O)c2ccc(C(F)(F)F)cc21 [drawing 289, 3-(2-methyl-6-oxo-1,6-dihydropyridin-3-yl)-1-(2-methylpyridin-3-yl)-7-(trifluoromethyl)-2,3-dihydroquinazolin-4(1H)-one]",2.51 µM
5,"Cc1[nH]c(=O)ccc1N1CN(c2ccc(F)cc2C(C)C)c2cc(C(F)(F)F)ccc2C1=O [drawing 290, 1-(4-fluoro-2-isopropylphenyl)-3-(2-methyl-6-oxo-1,6-dihydropyridin-3-yl)-7-(trifluoromethyl)-2,3-dihydroquinazolin-4(1H)-one]",0.00631 µM
6,"Cc1cc(F)ccc1N1CN(c2ccc(=O)[nH]c2C)C(=O)c2cc(Cl)ccc21 [drawing 293, 6-chloro-1-(4-fluoro-2-methylphenyl)-3-(2-methyl-6-oxo-1,6-dihydropyridin-3-yl)-2,3-dihydroquinazolin-4(1H)-one]",0.01 µM
7,"Cc1[nH]c(=O)ccc1N1CN(c2ccc(F)cc2)c2ccccc2C1=O [drawing 294, 1-(4-fluorophenyl)-3-(2-methyl-6-oxo-1,6-dihydropyridin-3-yl)-2,3-dihydroquinazolin-4(1H)-one]",5.01 µM
8,"Cc1ccccc1N1CN(c2ccc(=O)[nH]c2C)C(=O)c2ccccc21 [drawing 295, 3-(2-methyl-6-oxo-1,6-dihydropyridin-3-yl)-1-(o-tolyl)-2,3-dihydroquinazolin-4(1H)-one]",0.631 µM
9,"Cc1ccc2c(c1)C(=O)N(c1ccc(=O)[nH]c1C)CN2c1ccc(F)cc1C [drawing 296, 1-(4-fluoro-2-methylphenyl)-6-methyl-3-(2-methyl-6-oxo-1,6-dihydropyridin-3-yl)-2,3-dihydroquinazolin-4(1H)-one]",0.0501 µM
10,"Cc1cc(F)ccc1N1CN(c2ccc(=O)[nH]c2C)C(=O)c2ccccc21 [drawing 297, 1-(4-fluoro-2-methylphenyl)-3-(2-methyl-6-oxo-1,6-dihydropyridin-3-yl)-2,3-dihydroquinazolin-4(1H)-one]",0.0631 µM
11,"Cc1cc(F)ccc1N1CN(c2ccc(=O)[nH]c2C)C(=O)c2ccc(Br)cc21 [drawing 298, 7-bromo-1-(4-fluoro-2-methylphenyl)-3-(2-methyl-6-oxo-1,6-dihydropyridin-3-yl)-2,3-dihydroquinazolin-4(1H)-one]",0.00316 µM
12,"Cc1cc(F)ccc1N1CN(c2ccc(=O)[nH]c2C)C(=O)c2ccc(C#N)cc21 [drawing 299, 1-(4-fluoro-2-methylphenyl)-3-(2-methyl-6-oxo-1,6-dihydropyridin-3-yl)-4-oxo-1,2,3,4-tetrahydroquinazoline-7-carbonitrile]",0.0251 µM
13,"CCOc1ccc(N2CN(c3ccc(=O)[nH]c3C)C(=O)c3ccc(C(F)(F)F)cc32)cc1 [drawing 302, 1-(4-ethoxyphenyl)-3-(2-methyl-6-oxo-1,6-dihydropyridin-3-yl)-7-(trifluoromethyl)-2,3-dihydroquinazolin-4(1H)-one]",0.398 µM
14,"Cc1cc(F)ccc1N1CN(c2ccc(=O)[nH]c2C)C(=O)c2ccc(OC(F)(F)F)cc21 [drawing 303, 1-(4-fluoro-2-methylphenyl)-3-(2-methyl-6-oxo-1,6-dihydropyridin-3-yl)-7-(trifluoromethoxy)-2,3-dihydroquinazolin-4(1H)-one]",0.00316 µM
15,"Cc1ccc2c(c1)N(c1ccc(F)cc1C)CN(c1ccc(=O)[nH]c1C)C2=O [drawing 304, 1-(4-fluoro-2-methylphenyl)-7-methyl-3-(2-methyl-6-oxo-1,6-dihydropyridin-3-yl)-2,3-dihydroquinazolin-4(1H)-one]",0.00158 µM

# Continued, values first:
row,IC50,SMILES
1,6.31 µM,"Cc1cc(F)ccc1N1CN(c2ccc(=O)[nH]c2)C(=O)c2ccc(C(F)(F)F)c(Cl)c21 [drawing 282, 8-chloro-1-(4-fluoro-2-methylphenyl)-3-(6-oxo-1,6-dihydropyridin-3-yl)-7-(trifluoromethyl)-2,3-dihydroquinazolin-4(1H)-one]"
2,0.316 µM,"Cc1cc(Br)ccc1N1CN(c2ccc(=O)[nH]c2)C(=O)c2ccc(C(F)(F)F)cc21 [drawing 283, 1-(4-bromo-2-methylphenyl)-3-(6-oxo-1,6-dihydropyridin-3-yl)-7-(trifluoromethyl)-2,3-dihydroquinazolin-4(1H)-one]"
3,6.31 µM,"Cc1cc(F)ccc1N1CN(c2ccc(=O)[nH]c2)C(=O)c2ccc(C(F)(F)F)c(C)c21 [drawing 284, 1-(4-fluoro-2-methylphenyl)-8-methyl-3-(6-oxo-1,6-dihydropyridin-3-yl)-7-(trifluoromethyl)-2,3-dihydroquinazolin-4(1H)-one]"
4,0.126 µM,"Cc1[nH]c(=O)ccc1N1CN(c2ccc(F)cc2)c2cc(C(F)(F)F)ccc2C1=O [drawing 285, 1-(4-fluorophenyl)-3-(2-methyl-6-oxo-1,6-dihydropyridin-3-yl)-7-(trifluoromethyl)-2,3-dihydroquinazolin-4(1H)-one]"
5,0.0158 µM,"Cc1cc(F)ccc1N1CN(c2ccc(=O)[nH]c2C)C(=O)c2cc(C(F)(F)F)ccc21 [drawing 286, 1-(4-fluoro-2-methylphenyl)-3-(2-methyl-6-oxo-1,6-dihydropyridin-3-yl)-6-(trifluoromethyl)-2,3-dihydroquinazolin-4(1H)-one]"
6,0.02 µM,"CCc1[nH]c(=O)ccc1N1CN(c2ccc(F)cc2C)c2cc(C(F)(F)F)ccc2C1=O [drawing 291, 3-(2-ethyl-6-oxo-1,6-dihydropyridin-3-yl)-1-(4-fluoro-2-methylphenyl)-7-(trifluoromethyl)-2,3-dihydroquinazolin-4(1H)-one]"
7,0.794 µM,"Cc1cc(F)ccc1N1CN(c2ccc(=O)[nH]c2Cl)C(=O)c2ccc(C(F)(F)F)cc21 [drawing 292, 3-(2-chloro-6-oxo-1,6-dihydropyridin-3-yl)-1-(4-fluoro-2-methylphenyl)-7-(trifluoromethyl)-2,3-dihydroquinazolin-4(1H)-one]"
8,0.251 µM,"Cc1cc(F)ccc1N1CN(c2ccc(=O)[nH]c2C#N)C(=O)c2ccc(C(F)(F)F)cc21 [drawing 300, 3-(1-(4-fluoro-2-methylphenyl)-4-oxo-7-(trifluoromethyl)-1,4-dihydroquinazolin-3(2H)-yl)-6-oxo-1,6-dihydropyridine-2-carbonitrile]"
9,0.251 µM,"Cc1[nH]c(=O)ccc1N1CN(c2ccc(F)cc2F)c2cc(C(F)(F)F)ccc2C1=O [drawing 301, 1-(2,4-difluorophenyl)-3-(2-methyl-6-oxo-1,6-dihydropyridin-3-yl)-7-(trifluoromethyl)-2,3-dihydroquinazolin-4(1H)-one]"
10,0.0126 µM,"Cc1cc(F)ccc1N1CN(c2ccc(=O)[nH]c2C)C(=O)c2cc(C(F)(F)F)ccc21 [drawing 305, 1-(4-fluoro-2-methylphenyl)-3-(2-methyl-6-oxo-1,6-dihydropyridine-3-yl)-6-(trifluoromethyl)-2,3-dihydroquinazolin-4(1H)-one]"
11,0.501 µM,"Cc1cc(F)ccc1N1CN(c2cnc(=O)[nH]c2)C(=O)c2ccc(C(F)(F)F)cc21 [drawing 306, 1-(4-fluoro-2-methylphenyl)-3-(2-oxo-1,2-dihydropyrimidin-5-yl)-7-(trifluoromethyl)-2,3-dihydroquinazolin-4(1H)-one]"
12,2 µM,"Cc1cc(F)ccc1N1CN(c2ccc(=O)[nH]n2)C(=O)c2ccc(C(F)(F)F)cc21 [drawing 307, 1-(4-fluoro-2-methylphenyl)-3-(6-oxo-1,6-dihydropyridazin-3-yl)-7-(trifluoromethyl)-2,3-dihydroquinazolin-4(1H)-one]"
13,0.398 µM,"Cc1cc(F)ccc1N1CN(c2ncc(=O)[nH]c2C)C(=O)c2ccc(C(F)(F)F)cc21 [drawing 308, 1-(4-fluoro-2-methylphenyl)-3-(3-methyl-5-oxo-4,5-dihydropyrazin-2-yl)-7-(trifluoromethyl)-2,3-dihydroquinazolin-4(1H)-one]"

# Same assay, conditions: Table 2; HEK293-Nav1.8, QPatch 48 HTX, half inactivation state voltage protocol (V1/2); single run or average of two or more runs; read-out: Nav1.8 pIC50 (converted)
row,IC50,SMILES
1,0.398 µM,"Cc1cc(F)ccc1N1CN(c2cc[nH]c(=O)c2)C(=O)c2ccc(C(F)(F)F)cc21 [drawing 309, 1-(4-fluoro-2-methylphenyl)-3-(2-oxo-1,2-dihydropyridin-4-yl)-7-(trifluoromethyl)-2,3-dihydroquinazolin-4(1H)-one]"
2,2.51 µM,"Cc1cc(N2CN(c3ccc(F)cc3C)c3cc(C(F)(F)F)ccc3C2=O)cc(=O)[nH]1 [drawing 310, 1-(4-fluoro-2-methylphenyl)-3-(6-methyl-2-oxo-1,2-dihydropyridin-4-yl)-7-(trifluoromethyl)-2,3-dihydroquinazolin-4(1H)-one]"
3,1 µM,"Cc1c[nH]c(=O)cc1N1CN(c2ccc(F)cc2C)c2cc(C(F)(F)F)ccc2C1=O [drawing 311, 1-(4-fluoro-2-methylphenyl)-3-(5-methyl-2-oxo-1,2-dihydropyridin-4-yl)-7-(trifluoromethyl)-2,3-dihydroquinazolin-4(1H)-one]"

# — patent US20230103791A1 (GLAXOSMITHKLINE INTELLECTUAL PROPERTY DEVELOPMENT LIMITED, priority 2019, published 2023)
